Here are results for 17 compounds from ChEMBL document CHEMBL5291721, “A preclinical secondary pharmacology resource illuminates target-adverse drug reaction associations of marketed drugs” (Nat Commun, 2023).

Targets include Adenosine receptor A2a (Homo sapiens, UniProt P29274); Cannabinoid receptor 1 (Homo sapiens, UniProt P21554); Mu-type opioid receptor (Homo sapiens, UniProt P35372).
The target in assay [1] is T1, Alpha-1A adrenergic receptor (Homo sapiens, UniProt P35348).
T1 sequence (P35348 whole entry): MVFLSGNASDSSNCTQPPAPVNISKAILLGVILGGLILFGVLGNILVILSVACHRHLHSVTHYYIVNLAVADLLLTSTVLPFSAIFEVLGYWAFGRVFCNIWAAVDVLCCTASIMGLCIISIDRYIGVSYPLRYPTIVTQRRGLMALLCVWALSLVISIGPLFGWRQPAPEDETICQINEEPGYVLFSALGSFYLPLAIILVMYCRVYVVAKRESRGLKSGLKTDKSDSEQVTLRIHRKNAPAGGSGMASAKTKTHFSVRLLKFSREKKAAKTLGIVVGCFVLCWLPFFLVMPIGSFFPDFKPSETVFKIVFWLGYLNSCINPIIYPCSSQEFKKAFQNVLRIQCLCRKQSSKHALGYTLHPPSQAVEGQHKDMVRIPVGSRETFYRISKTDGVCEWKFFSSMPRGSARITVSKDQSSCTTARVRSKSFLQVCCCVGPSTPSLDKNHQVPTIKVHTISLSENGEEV
The assay is classed as functional, cell-based.

Assay [2] concerns the target T2, Alpha-2A adrenergic receptor (Homo sapiens, UniProt P08913).
T2 sequence (P08913 whole entry): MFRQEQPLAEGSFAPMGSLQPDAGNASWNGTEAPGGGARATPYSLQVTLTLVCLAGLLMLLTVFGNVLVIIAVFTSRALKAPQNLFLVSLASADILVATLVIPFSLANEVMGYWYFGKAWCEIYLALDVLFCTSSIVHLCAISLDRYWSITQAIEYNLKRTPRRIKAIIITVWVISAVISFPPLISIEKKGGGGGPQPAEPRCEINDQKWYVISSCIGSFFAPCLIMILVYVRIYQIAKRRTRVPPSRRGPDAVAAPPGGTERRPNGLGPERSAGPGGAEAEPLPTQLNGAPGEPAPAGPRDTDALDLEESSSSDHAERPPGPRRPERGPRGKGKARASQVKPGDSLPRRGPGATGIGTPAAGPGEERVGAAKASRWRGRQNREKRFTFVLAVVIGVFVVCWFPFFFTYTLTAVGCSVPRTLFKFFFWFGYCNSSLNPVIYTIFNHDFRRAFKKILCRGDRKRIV
The assay is classed as functional, cell-based.

Assay [3] concerns the target T3, Gastrin/cholecystokinin type B receptor (Homo sapiens, UniProt P32239).
T3 sequence (P32239 whole entry): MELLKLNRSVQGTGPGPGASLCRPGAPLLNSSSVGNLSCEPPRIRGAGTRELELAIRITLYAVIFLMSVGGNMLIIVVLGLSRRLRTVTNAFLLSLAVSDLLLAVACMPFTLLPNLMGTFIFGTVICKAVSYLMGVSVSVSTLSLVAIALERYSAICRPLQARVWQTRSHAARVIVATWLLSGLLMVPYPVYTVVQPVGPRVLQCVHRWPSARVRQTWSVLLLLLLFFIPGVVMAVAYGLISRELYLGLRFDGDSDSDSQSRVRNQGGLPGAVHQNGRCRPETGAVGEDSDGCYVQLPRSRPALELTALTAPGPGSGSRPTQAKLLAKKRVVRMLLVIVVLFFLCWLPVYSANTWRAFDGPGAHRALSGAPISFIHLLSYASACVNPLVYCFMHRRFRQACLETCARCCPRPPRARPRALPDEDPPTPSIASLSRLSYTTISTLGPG

A further assay concerns the target T4, Estrogen receptor (Homo sapiens, UniProt P03372).
T4 sequence (P03372 whole entry): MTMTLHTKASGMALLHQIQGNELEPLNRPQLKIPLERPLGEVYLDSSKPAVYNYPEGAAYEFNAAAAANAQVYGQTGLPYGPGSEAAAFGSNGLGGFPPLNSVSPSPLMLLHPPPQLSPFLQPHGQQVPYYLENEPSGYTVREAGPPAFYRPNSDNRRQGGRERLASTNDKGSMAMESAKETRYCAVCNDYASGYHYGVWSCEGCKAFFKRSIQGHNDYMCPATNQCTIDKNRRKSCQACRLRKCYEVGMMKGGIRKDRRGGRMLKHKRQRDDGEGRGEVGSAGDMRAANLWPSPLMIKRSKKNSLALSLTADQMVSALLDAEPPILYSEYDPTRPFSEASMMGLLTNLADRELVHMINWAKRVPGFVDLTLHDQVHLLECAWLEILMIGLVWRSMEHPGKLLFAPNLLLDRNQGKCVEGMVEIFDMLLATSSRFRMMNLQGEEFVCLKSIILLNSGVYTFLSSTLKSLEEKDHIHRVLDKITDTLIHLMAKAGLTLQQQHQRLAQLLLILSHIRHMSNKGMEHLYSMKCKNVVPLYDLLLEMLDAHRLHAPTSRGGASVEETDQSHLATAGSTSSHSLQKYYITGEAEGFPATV

Assay [4] has as its target T5, Gamma-aminobutyric acid receptor subunit alpha-1 (Rattus norvegicus, UniProt P62813).
In assay [5] the target is T5, Gamma-aminobutyric acid receptor subunit alpha-1. The source holds these as a separate data set.
Assay [6] addresses Glutamate receptor ionotropic, NMDA 1 (Rattus norvegicus, UniProt P35439).
A further assay has as its target Histamine H2 receptor (Homo sapiens, UniProt P25021). Type of assay: functional, cell-based.
Assay [7] concerns the target Kappa-type opioid receptor (Homo sapiens, UniProt P41145).
The next assay has as its target T6, Thromboxane A2 receptor (Homo sapiens, UniProt P21731).
T6 sequence (P21731 whole entry): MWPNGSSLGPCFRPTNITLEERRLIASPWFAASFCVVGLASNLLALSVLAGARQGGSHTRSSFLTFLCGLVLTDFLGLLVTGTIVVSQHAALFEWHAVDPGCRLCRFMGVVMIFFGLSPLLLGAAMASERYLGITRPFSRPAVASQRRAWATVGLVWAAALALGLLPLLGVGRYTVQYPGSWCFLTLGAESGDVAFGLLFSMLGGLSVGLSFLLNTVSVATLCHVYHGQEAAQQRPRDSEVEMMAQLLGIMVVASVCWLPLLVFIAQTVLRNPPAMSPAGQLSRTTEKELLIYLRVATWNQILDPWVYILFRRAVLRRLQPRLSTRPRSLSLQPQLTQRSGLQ

Assay [8] addresses Sodium-dependent serotonin transporter (Homo sapiens, UniProt P31645).
Also: assay procedure not described here.

Chain of Kappa-type opioid receptor (P41145 whole entry): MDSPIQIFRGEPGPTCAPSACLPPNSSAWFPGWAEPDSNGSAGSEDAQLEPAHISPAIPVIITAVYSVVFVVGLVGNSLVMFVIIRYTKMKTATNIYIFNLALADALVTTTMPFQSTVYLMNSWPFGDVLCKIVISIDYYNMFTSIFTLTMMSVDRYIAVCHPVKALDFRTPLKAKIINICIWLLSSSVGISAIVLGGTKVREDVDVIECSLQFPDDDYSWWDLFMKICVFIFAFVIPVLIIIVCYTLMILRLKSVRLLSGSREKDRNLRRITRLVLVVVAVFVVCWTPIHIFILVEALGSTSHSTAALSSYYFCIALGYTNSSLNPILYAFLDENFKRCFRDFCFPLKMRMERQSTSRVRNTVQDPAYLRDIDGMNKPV
Chain of Adenosine receptor A2a (P29274 whole entry): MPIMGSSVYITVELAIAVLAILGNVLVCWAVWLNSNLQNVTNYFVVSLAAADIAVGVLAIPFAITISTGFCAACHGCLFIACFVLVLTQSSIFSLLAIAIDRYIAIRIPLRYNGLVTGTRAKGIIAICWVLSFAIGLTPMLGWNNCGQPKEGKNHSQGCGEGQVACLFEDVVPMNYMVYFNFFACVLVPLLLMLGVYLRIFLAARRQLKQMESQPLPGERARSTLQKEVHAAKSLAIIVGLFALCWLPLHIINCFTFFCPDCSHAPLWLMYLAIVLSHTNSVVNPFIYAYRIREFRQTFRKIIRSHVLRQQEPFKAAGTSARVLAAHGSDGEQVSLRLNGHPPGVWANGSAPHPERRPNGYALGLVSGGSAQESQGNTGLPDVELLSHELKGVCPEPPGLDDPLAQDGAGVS
Chain of Mu-type opioid receptor (P35372 whole entry): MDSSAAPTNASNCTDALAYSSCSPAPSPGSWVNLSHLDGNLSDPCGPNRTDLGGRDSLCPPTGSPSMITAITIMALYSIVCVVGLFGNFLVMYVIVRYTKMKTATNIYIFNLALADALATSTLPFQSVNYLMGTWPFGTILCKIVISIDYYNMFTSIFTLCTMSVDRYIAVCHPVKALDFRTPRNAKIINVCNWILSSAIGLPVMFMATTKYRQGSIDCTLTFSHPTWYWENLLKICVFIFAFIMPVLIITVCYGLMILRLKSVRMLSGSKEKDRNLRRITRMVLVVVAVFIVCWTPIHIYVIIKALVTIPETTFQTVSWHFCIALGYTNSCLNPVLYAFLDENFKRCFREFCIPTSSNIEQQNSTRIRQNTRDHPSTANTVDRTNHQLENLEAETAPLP
Chain of Sodium-dependent serotonin transporter (P31645 whole entry): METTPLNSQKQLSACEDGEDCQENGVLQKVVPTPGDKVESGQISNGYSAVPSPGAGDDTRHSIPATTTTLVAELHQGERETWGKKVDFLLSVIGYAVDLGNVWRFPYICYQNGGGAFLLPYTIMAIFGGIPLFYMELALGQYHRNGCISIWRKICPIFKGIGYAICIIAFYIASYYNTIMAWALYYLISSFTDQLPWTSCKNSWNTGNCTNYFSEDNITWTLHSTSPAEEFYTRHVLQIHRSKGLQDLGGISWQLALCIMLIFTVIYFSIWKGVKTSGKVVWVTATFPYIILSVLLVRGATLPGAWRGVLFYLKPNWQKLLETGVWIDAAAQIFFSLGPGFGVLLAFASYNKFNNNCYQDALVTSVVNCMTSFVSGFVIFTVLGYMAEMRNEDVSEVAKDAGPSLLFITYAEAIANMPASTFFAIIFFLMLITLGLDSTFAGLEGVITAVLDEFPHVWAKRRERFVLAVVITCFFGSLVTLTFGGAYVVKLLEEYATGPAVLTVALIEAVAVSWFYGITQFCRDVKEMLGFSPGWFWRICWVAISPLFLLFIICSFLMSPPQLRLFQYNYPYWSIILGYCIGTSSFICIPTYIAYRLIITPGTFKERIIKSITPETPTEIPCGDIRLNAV
T5 sequence (P62813 whole entry): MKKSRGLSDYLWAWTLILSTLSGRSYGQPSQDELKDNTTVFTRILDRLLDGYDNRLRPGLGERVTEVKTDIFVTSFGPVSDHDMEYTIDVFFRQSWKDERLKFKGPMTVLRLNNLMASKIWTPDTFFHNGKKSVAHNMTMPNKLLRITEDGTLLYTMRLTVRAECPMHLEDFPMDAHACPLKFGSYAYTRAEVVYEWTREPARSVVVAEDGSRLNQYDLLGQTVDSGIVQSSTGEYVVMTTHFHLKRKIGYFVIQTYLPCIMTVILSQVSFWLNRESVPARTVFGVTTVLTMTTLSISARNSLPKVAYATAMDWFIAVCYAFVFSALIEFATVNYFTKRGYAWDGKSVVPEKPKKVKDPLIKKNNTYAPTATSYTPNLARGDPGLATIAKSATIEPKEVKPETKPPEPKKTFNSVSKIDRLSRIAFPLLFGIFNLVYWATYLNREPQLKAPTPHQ
Chain of Cannabinoid receptor 1 (P21554 whole entry): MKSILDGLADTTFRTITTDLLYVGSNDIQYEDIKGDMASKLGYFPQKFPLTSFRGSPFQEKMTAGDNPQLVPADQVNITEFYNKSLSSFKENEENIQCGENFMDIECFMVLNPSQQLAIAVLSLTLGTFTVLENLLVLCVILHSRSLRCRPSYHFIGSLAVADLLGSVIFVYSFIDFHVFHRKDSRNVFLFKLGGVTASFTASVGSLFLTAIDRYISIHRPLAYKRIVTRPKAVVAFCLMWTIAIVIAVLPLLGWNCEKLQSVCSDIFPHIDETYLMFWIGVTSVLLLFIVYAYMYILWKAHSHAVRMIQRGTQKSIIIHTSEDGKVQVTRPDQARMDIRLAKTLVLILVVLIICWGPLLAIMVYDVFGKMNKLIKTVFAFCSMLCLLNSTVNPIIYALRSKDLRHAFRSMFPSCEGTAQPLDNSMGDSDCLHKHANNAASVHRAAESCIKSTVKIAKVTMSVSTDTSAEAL
Chain of Histamine H2 receptor (P25021 whole entry): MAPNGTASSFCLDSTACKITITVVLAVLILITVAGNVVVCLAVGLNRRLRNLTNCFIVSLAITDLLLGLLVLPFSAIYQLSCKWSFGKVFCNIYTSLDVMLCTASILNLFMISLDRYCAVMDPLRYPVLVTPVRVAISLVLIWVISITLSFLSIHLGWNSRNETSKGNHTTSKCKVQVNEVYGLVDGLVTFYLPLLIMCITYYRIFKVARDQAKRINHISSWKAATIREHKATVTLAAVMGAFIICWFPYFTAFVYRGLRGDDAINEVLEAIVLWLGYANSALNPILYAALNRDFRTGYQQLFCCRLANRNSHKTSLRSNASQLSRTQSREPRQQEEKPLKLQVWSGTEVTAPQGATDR

On to `CCCN(CCC)C(=O)Cc1c(-c2ccc(Cl)cc2)nc2ccc(Cl)cn12` [ALPIDEM], for which the AC50 on Adenosine receptor A2a was over 30 µM; in assay [1], over 10 µM; in assay [2], over 30 µM; in [3] it was over 30 µM; at Cannabinoid receptor 1, over 30 µM; at Estrogen receptor, over 30 µM. In addition, the concentration at half-maximal activity (AC50) in assay [4] is over 30 µM; in assay [5], 0.02 µM; in assay [6], over 30 µM; at Histamine H2 receptor, over 30 µM; in assay [7] it was 13 µM; on Thromboxane A2 receptor it was over 30 µM. Besides, the AC50 at Mu-type opioid receptor was over 10 µM.
For `CNC(=O)Oc1cccc2ccccc12` [CARBARIL], the AC50 (in assay [1]; at Estrogen receptor; in assay [5]; in assay [8]) was over 30 µM each time.
`CC[C@H](C)C[C@H](C)CCCCCCCCC(=O)N[C@H]1C[C@@H](O)[C@@H](NCCN)NC(=O)[C@@H]2[C@@H](O)CCN2C(=O)[C@H]([C@H](O)CCN)NC(=O)[C@H]([C@H](O)[C@@H](O)c2ccc(O)cc2)NC(=O)[C@@H]2C[C@@H](O)CN2C(=O)[C@H]([C@@H](C)O)NC1=O` [CASPOFUNGIN]: the AC50 was 13 µM in [1], 23.1 µM on Estrogen receptor, over 30 µM in [5] and over 30 µM in assay [8].
Take `C/C=C/C/C=C/CCC(=O)[C@H]1O[C@H]1C(N)=O` [CERULENIN]: the AC50 (in [1]; on Estrogen receptor; in assay [5]; in assay [8]) was over 30 µM each time.
Regarding `C#C[C@]1(O)CC[C@H]2[C@@H]3CCC4=CC(=O)CC[C@@H]4[C@H]3C(=C)C[C@@]21CC` [ETONOGESTREL], the AC50 is over 30 µM in [2]; 5.62 µM on Estrogen receptor; over 30 µM in assay [4]; 28 µM in [5]; over 30 µM in [6]; over 30 µM at Histamine H2 receptor. In addition, the half-maximal activity concentration (AC50) in assay [7] and in assay [8] was over 30 µM in each case.
Turning to `O=C1/C(=C2\Nc3ccc(S(=O)(=O)O)cc3C2=O)Nc2ccc(S(=O)(=O)O)cc21` [INDIGOTINDISULFONATE], the AC50 in [1], in assay [5] and in [8] was over 30 µM in each case.
As to `C=CCN1CC[C@]23CCCC[C@H]2[C@H]1Cc1ccc(O)cc13` [LEVALLORPHAN], the AC50 in assay [1], in [5] and in assay [8] was over 30 µM in each case.
For the compound `CN(CC1(C)CCCO1)S(=O)(=O)c1ccc(Cl)c(S(N)(=O)=O)c1` (stereo not drawn) [MEFRUSIDE], the AC50 (in assay [2]; in assay [4]; in [5]; in assay [6]; on Histamine H2 receptor; in [7]) was over 30 µM each time. The same compound yielded an AC50 in assay [8] of over 30 µM.
Turning to `CCOC(=O)c1c(C)cc2c(CO)n[nH]c(=O)c2c1C` [OXAGRELATE], the half-maximal activity concentration (AC50) (on Estrogen receptor; in [5]; in assay [8]) was over 30 µM in each case.
Take `CCn1cc(C(=O)O)c(=O)c2cc3c(cc21)OCO3` [OXOLINIC ACID]: the AC50 in [1], in assay [5] and in assay [8] was over 30 µM in each case.
With `CN1C(C(=O)Nc2ccccn2)=C(O)c2ccccc2S1(=O)=O` [PIROXICAM], the half-maximal activity concentration (AC50) on Adenosine receptor A2a was over 10 µM; in assay [2], over 10 µM; on Cannabinoid receptor 1, over 10 µM; at Estrogen receptor it was over 30 µM; in assay [4], over 10 µM; in [5] it was over 30 µM. Also, the half-maximal activity concentration (AC50) in assay [6] is over 10 µM; on Histamine H2 receptor, over 30 µM; in assay [7], over 10 µM; at Thromboxane A2 receptor, over 10 µM; at Mu-type opioid receptor, over 30 µM.
Consider `CC[C@@]1(O)C(=O)OCc2c1cc1n(c2=O)Cc2cc3c([N+](=O)[O-])cccc3nc2-1` [RUBITECAN], for which the AC50 (on Estrogen receptor; in [5]; in assay [8]) was over 30 µM in each case.
Regarding `N[C@@H](CO)C(=O)O` [SERINE], the concentration at half-maximal activity (AC50) in assay [1], in assay [5] and in [8] was over 30 µM throughout.
For the compound `OC[C@H]1O[C@@](CO)(O[C@H]2O[C@H](CO)[C@@H](O)[C@H](O)[C@H]2O)[C@@H](O)[C@@H]1O` [SUCROSE], the AC50 (on Adenosine receptor A2a; in assay [2]; in assay [3]; at Estrogen receptor; in [4]; in assay [5]) was over 30 µM throughout. The AC50 (in assay [6]; on Histamine H2 receptor; in assay [7]) was over 30 µM in each case.
As to `COc1cc2nc(N3CCN(C(=O)C4CCCO4)CC3)nc(N)c2cc1OC` (stereo not drawn) [TERAZOSIN], the AC50 on Adenosine receptor A2a was over 30 µM; in assay [2] it was over 30 µM; in assay [3], over 30 µM; at Cannabinoid receptor 1, over 10 µM; on Estrogen receptor, over 30 µM; in [4], over 10 µM. The AC50 in assay [5] was over 30 µM; in [6] it was over 10 µM; on Histamine H2 receptor, over 10 µM; at Thromboxane A2 receptor, over 30 µM; at Mu-type opioid receptor it was 3 µM.
Turning to `CC(=O)Oc1cc(C(F)(F)F)ccc1C(=O)O` [TRIFLUSAL], the AC50 in [1], in [5] and in [8] was over 30 µM each time.
For the compound `CCCC(CCC)C(=O)O` [VALPROIC ACID], the concentration at half-maximal activity (AC50) on Adenosine receptor A2a was over 30 µM; in assay [2], over 10 µM; in assay [3] it was over 30 µM; on Cannabinoid receptor 1, over 10 µM; on Estrogen receptor, over 30 µM; in assay [4], over 10 µM. In addition, the concentration at half-maximal activity (AC50) in assay [5] was over 30 µM; in assay [6], over 10 µM; in assay [7], over 10 µM; at Thromboxane A2 receptor, over 30 µM; on Mu-type opioid receptor, over 30 µM.

For orientation: AC50 means the concentration at which the activity in the assay is half-maximal. Read a high AC50 as weaker potency.
